Values joined by “and” are separate entries in the source; they are usually repeats but may differ in a detail not shown here. Equal values may be shown once. “Also recorded” adds a separate entry of the source.
Assays:
Assay type in all cases: cell-based
[1] = system: Ventricular embryonic chick cardiomyocytes; assay: Cell death (propidium iodide viability assay) after simulated ischemia/reperfusion; details: for cell death: control 50.2±3.0%, n=3
Procedure: Ventricular embryonic chick cardiomyocytes were prepared according to published procedure. […] Coverslips were checked for non-muscle cell contamination.
(§1) Coverslips with contracting cells were placed in a 1.2 mL Sykes-Moore perfusion chamber (Bellco Glass Inc., Vineland, N.J.). The chamber and inflow tubing were maintained at 37° C. Perfusate was supplied to the chamber (0.25 ml/min) via stainless steel tubing to minimize diffusive entry of ambient O2.
Cell viability was assessed with the fluorochrome propidium iodide (PI) (5 μM, Molecular Probes, Eugene, Oreg.). PI is excluded from viable cells, but enters cells and binds to chromatin after loss of cell membrane integrity. The cells then become highly fluorescent (excitation wavelength of 540 nm and a 590 nm band pass emission filter). PI was used to quantify cell death throughout the entire time of each experiment. […] All cells in the field studied were stained with PI at the end of the experiment by permeabilizing the cells with digitonin (300 μM). Percent cell death was then calculated as the PI fluorescence at any given time point relative to the maximal fluorescence value seen after digitonin exposure.
(§2) For each experiment a field of about 500 cells was observed. Treatment and control groups were matched in sets containing cells isolated and cultured on the same day so as to eliminate variability due to cell batch. Additional 25 mm coverslips were used for replicate experiments (“n”). Results are reported as means plus or minus S.E.M. and two-tailed unpaired t-tests comparing similar time points throughout ischemia and reperfusion were used as tests of significance, with p<0.05 considered to be significant.

[2] = system: reactive oxygen species (ROS) in embryonic chick cardiomyocytes; assay: Intracellular ROS (DCF fluorescence) at reperfusion after simulated ischemia
Procedure: (§3) Ventricular embryonic chick cardiomyocytes were prepared according to published procedure. (Vanden Hoek T L, Becker L B, Shao Z, et al. Reactive oxygen species released from mitochondria during brief hypoxia induce preconditioning in cardiomyocytes, J. Biol. Chem. […]; 273:18092-18098, which is incorporated herein by reference). 10-day old chicken embryo hearts were removed, ventricular tissue minced into 0.5 mm fragments, enzymatically dispersed with 0.025% trypsin (Life Technologies, New York, N.Y.), centrifuged, 0.7×10^6 cells were pipetted onto 25 mm coverslips, and incubated with 5% CO2. Coverslips were checked for non-muscle cell contamination. Experiments were performed with 3-5 day cardiac cell cultures, by which time a synchronously contracting layer of cells could be visualized and viability exceeded 95%.
as §1
(§4) Normoxic perfusate used for baseline conditions and for reperfusion subsequent to ischemia contained oxygenated balanced salt solution (BSS) with a PO2 OF 149 torr, PCO2 of 40 torr, pH of 7.4, and [K]^+ of 4.0 mEq/L, and glucose (5.6 mM). To simulate ischemia, the perfusate contained BSS with 2-deoxyglucose (2-DOG) (20 mM) rather than glucose and [K]^+ of 8.0 mEq/L. The ischemic perfusate was equilibrated with 80% N2 and 20% CO2 prior to use to produce a PO2 of ˜5 torr, a PCO2 of 144 torr and a final pH of 6.8.
Intracellular oxidant stress due to ROS was monitored real time with the intracellular probe 2′,7′-dichlorofluorescin diacetate (DCFH-DA, 5 μM, Molecular Probes, Eugene, Oreg.) as described in published literature (Vanden Hoek, F L, et al., Reactive oxygen species released from mitochondria during brief hypoxia induce preconditioning in cardiomyocytes, J. Biol. Chem. […]; 273:18092-18098, which is incorporated by reference herein; Vanden Hoek, T L, et al, Preconditioning in cardiomyocytes protects by attenuating oxidant stress at reperfusion, Circ Res 2000; 86:534-540, which is incorporated by reference herein; Vanden Hoek, T L, Reperfusion, not simulated ischemia initiates intrinsic apoptosis injury in chick cardiomyocytes Am J. Physiol Heart Physiol 2003; 284:H141-150, which is incorporated by reference herein). DCFH-DA is cleaved by cellular esterases upon entry into the cells, trapping the nonfluorescent 2′,7′-dichlorofluorescin (DCFH) inside. ROS, particularly hydrogen peroxide (H2O2) and hydroxyl radical generate the fluorescent product dichlorofluorescein (DCF) by causing the oxidation of DCFH. Increases in DCF fluorescence result from DCFH oxidation to DCF. DCF fluorescence was measured at an excitation wavelength of 480 nm, and a 520 nm band pass emission filter. Attention was focused on the maximal DCF fluorescence intensity value during the first minutes of reperfusion for comparison. All measurements were expressed in arbitrary units (a.u.) of fluorescence.
as §2

[3] = system: nitric oxide (NO) generation in embryonic chick cardiomyocytes; assay: NO generation (DAF-2 fluorescence) during ischemia/reperfusion; details: L-NAME 200 μM during I/R, n=8
Procedure: as §3, with “al:” for “al.”, “0.25%” for “0.025%”, “95%. […]” for “95%.”
Endogenous NO generation has been implicated to have both protective and detrimental roles in various in vitro and in vivo models of I/R injury. To test whether endogenous NO was affected by hypocarbic or hypercarbic reperfusion, we continuously monitored the entire course of I/R using the NO indicator DAF-2 DA of cells treated as described in Example 2.
Cells were treated as described in Example 11, and the NO profile and cell viability was assessed in hypercarbic reperfusion compared with hypercarbic reperfusion with 200 μM L-NAME incubated during I/R as described above.

[4] = system: reactive oxygen species (ROS) in embryonic chick cardiomyocytes; assay: ROS (DCF fluorescence) during hypocarbic/normocarbic/hypercarbic reperfusion; details: apocynin 300 μM during reperfusion
Procedure: as §3, with “al:” for “al.”, “0.25%” for “0.025%”
To simulate ischemia, the perfusate contained BSS with 2-deoxyglucose (2-DOG) (20 mM) rather than glucose, 18 mM NaCO3 and [K]^+ of 8.0 mEq/L, and was equilibrated with 80% N2 and 20% CO2 to produce a final PO2 of 3-5 torr, PCO2 of 144 torr, and pH 6.8. In addition, 20 mM of glycolytic inhibition 2-deoxyglucose was added to better model adenosine triphosphate depletion.
For perfusion, three perfusate solutions were used: normocarbic reperfusion perfusate, hypocarbic reperfusion perfusate and hypercarbic reperfusion perfusate. […]

[5] = system: Ventricular embryonic chick cardiomyocytes; assay: Return of synchronous cell contraction after simulated ischemia/reperfusion; details: no return in control cells
Procedure: as §3, §4
Contractions were assessed by monitoring synchronous movement within the same field of cells as previously reported. A return of contraction following simulated ischemia/reperfusion was indicated when contractions could be seen throughout the field of cells following the three hour period of reperfusion.

[6] = 20 μM NADH isomer at reperfusion

Structure (SMILES): CCN(CC)C(=S)S [DDC, diethyldithiocarbamic acid]
- I/R induced cell death ([1]; DDC 1 mM during reperfusion, control 49.7±6.7%, n=5): 15.7±4.7%
- maximal DCF fluorescence intensity ([2]; DDC 1 mM during simulated ischemia and first 15-30 min of reperfusion, control 2.8±0.2 a.u., n=5): 1.6±0.1 a.u.

Structure (SMILES): COC(=O)[C@@H](N)CCCNC(=N)N[N+](=O)[O-] [L-NAME, N^G-nitro-L-arginine methyl ester]
- NO generation (DAF-2 fluorescence) during hypercarbic reperfusion [3]: blocked maintenance of the sustained NO levels; also recorded: reduction of the sustained increase of NO generation

Structure (SMILES): COc1cc(C(C)=O)ccc1O [apocynin]
- ROS burst (DCF fluorescence) in hypocarbic reperfusion ([4]; hypocarbic): did not attenuate the reperfusion ROS burst; also recorded: increased the ROS burst
- ROS burst (DCF fluorescence) in normocarbic reperfusion ([4]; normocarbic): did not attenuate the reperfusion ROS burst; also recorded: increased the ROS burst

Structure (SMILES): C=C(C)[C@H]1Cc2c(ccc3c2O[C@@H]2COc4cc(OC)c(OC)cc4[C@@H]2C3=O)O1 [rotenone]
- protection against I/R injury (cell protection) ([1]; all tested doses of rotenone, including nanomolar doses for first 15 minutes of reperfusion): no tested dose of rotenone conferred cell protection
- cell death ([1]; rotenone 100 nM, first 15 minutes of reperfusion): 61.3±1.6%
- cell death ([1]; rotenone 1 μM, first 15 minutes of reperfusion): 77.4±6.6% and 77.1±6.6%
- cell death ([1]; rotenone 10 μM, first 15 minutes of reperfusion): 66.1±3.4% and 66.2±3.4%
- maximal peak DCF fluorescence intensity (reperfusion ROS) ([2]; rotenone 5 μM (representative of all doses), control 2.4±0.3 a.u., n=5): 0.7±0.1 a.u.

Structure (SMILES): C/C=C(C)/C=C/C=C/[C@H](OC)[C@@H](C)[C@@H](OC)[C@@H](C)CCc1oc2c(O)c(OC)cc(OC)c2c(=O)c1C [stigmatellin]
- cell death ([1]; stigmatellin 20 nM, first 15 minutes of reperfusion): 20.3±5.0%
- cell death ([1]; stigmatellin 100 μM, 3 hours of reperfusion): 80.1±6.0%
- cell death ([1]; stigmatellin 100 μM, first 15 minutes of reperfusion): 52.3±3.0%
- I/R cell death ([1]; stigmatellin 2-20 nM, first 15 min of reperfusion, control 53.8±3.5%, n=5): 10.8±2.9%
- reperfusion ROS ([2]; stigmatellin 100 μM, first 15 min of reperfusion): ROS was abrogated
- maximal peak DCF fluorescence intensity ([2]; stigmatellin 2-20 nM, first 15 min of reperfusion, control 2.4±0.3 a.u., n=5): 0.46±0.02 a.u.
- reperfusion ROS ([2]; stigmatellin given during the whole 3 hour course of reperfusion): ROS was attenuated
- return of contractions (groups with return/total) ([5]; stigmatellin 2-20 nM, first 15 minutes of reperfusion): 5/5

Structure (SMILES): NC(=O)C1=CN([C@H]2O[C@H](COP(=O)(O)OP(=O)(O)OC[C@H]3O[C@@H](n4cnc5c(N)ncnc54)[C@H](O)[C@@H]3O)[C@@H](O)[C@H]2O)C=CC1 [α-NADH]
- I/R cell death ([1]; exogenous α-NADH 20 μM, control 47.1±3.0%, n=5): 13.8±1.3%
- effect on β-NADH induced increase in ROS ([2]; α-NADH 20 μM co-treated with β-NADH 20 μM): blocked this increase in ROS; also recorded: reversal of the increase was observed
- return of contractions (groups with return/total) [5, 6]: 5/5

Structure (SMILES): NC(=O)C1=CN([C@@H]2O[C@H](COP(=O)(O)OP(=O)(O)OC[C@H]3O[C@@H](n4cnc5c(N)ncnc54)[C@H](O)[C@@H]3O)[C@@H](O)[C@H]2O)C=CC1 [β-NADH]
- I/R cell death versus control ([1]; exogenous β-NADH 20 μM, first 10 minutes of reperfusion): showed no benefit
- percent increase in ROS generation during reperfusion over ischemia ([2]; exogenous β-NADH 20 μM, first 10 minutes of reperfusion, control 86.2±19.6%, n=8): 511±123%
- return of contractions (groups with return/total) [5, 6]: absence of contractile return

Source: patent US20090110673A1, “METHODS OF REDUCING CELL DEATH FOLLOWING HYPOXIA / REOXYGENATION” (THE UNIVERSITY OF CHICAGO, priority 2006, published 2009)
